In PMC5626781, “A Potent Tartrate Resistant Acid Phosphatase Inhibitor to Study the Function of TRAP in Alveolar Macrophages” (Scientific Reports, 2017):

Assays:
[1] = test system: RAW264.7 macrophages; experiment: MTT assay; assay type: cell-based, mouse
Protocol: The effect of AubipyOMe and NaAuCl4 on RAW264.7 cell growth was assessed with a classical MTT assay. The IC50 values were calculated using nonlinear curve fitting with a variable slope in Graphpad Prism 6 (Graphpad Software) An average IC50 of four independent experiments was calculated.
AubipyOMe was tested in the range 0-40 μM with MPI cell lysates or pooled lung tissue lysates from COPD patients using a TRAP activity assay. MPI lysates were diluted 1:1 and COPD tissue lysates 1:20 with acetate buffer and incubated with increasing concentrations inhibitor, that were prepared from freshly made stock solutions (10 mM in DMSO) and diluted with acetate buffer. Lysates were incubated at 37° C for 30 min in the presence of PNPP solution (1:1 ratio). 1M NaOH was added to stop the reaction and absorption was measured at 410 nm with 490 nm as a reference value.
(§1) The inhibitory effects of gold compounds were calculated as the ratio of absorbance between the treated and untreated wells. The IC50 values were calculated using nonlinear curve fitting with a variable slope in Graphpad Prism 6 (Graphpad Software, la Jolla, USA). An average IC50 of three independent experiments was calculated.
The effect of AubipyOMe and NaAuCl4 on cell growth was assessed with a classical MTT assay.
RAW264.7 macrophages were seeded in 96-well plates at a concentration of 10,000 cells/well and grown for 24h in complete medium. Compound dilutions were prepared in complete medium from a freshly prepared stock solution (10 mM in DMSO) and added to the wells (200 μl) to obtain a final concentration (0 to 100 μM). […] The optical density of each well was quantified in quadruplicate at 540 nm, using a multi-well plate reader, and the percentage of surviving cells was calculated from the ratio of absorbance between treated and untreated cells. The IC50 values were calculated using nonlinear curve fitting with a variable slope in Graphpad Prism 6 (Graphpad Software) An average

[2] = test system: other proteins; set-up: method as in PMID 20162197, PMID 21370912; conditions: compared to TRAP isoforms; cited from earlier work
[3] = target: T1, TRAP activity in lysates of murine MPI alveolar macrophages (Mus musculus, UniProt Q05117); experiment: TRAP activity assay on MPI alveolar macrophage lysates; assay type: biochemical; conditions: cell lysates of murine MPI alveolar macrophages; mean ± standard error, n = 3
T1 construct: endogenous in cells; host or cells: murine MPI alveolar-like macrophages
T1 sequence (Q05117 23-327): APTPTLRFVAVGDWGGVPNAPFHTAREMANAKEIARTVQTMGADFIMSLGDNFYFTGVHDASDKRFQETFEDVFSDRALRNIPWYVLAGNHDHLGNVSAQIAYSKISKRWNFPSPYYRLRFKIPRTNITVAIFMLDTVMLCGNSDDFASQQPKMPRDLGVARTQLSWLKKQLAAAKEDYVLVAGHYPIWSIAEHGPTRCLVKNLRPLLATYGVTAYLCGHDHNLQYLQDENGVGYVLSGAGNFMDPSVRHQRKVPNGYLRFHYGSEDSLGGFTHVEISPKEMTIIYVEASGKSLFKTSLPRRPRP
Protocol: Mouse alveolar macrophage lysates were obtained by resuspending 500.000 MPI macrophages in 300 μl acetate buffer. Human lung lysates from COPD patients were used to test the inhibitor on human TRAP present in lung tissue. Lysates from in total 18 COPD patients were pooled (see Supplementary Table S3 for patient characteristics).
AubipyOMe was tested in the range 0–40 μM with MPI cell lysates or pooled lung tissue lysates from COPD patients using a TRAP activity assay. Lysates were incubated at 37 °C for 30 min in the presence of PNPP solution (1:1 ratio). 1M NaOH was added to stop the reaction and absorption was measured at 410 nm with 490 nm as a reference value.
as §1
Identification of TRAP inhibitors […]
Inhibitor dilutions were prepared in acetate buffer from freshly prepared stock solutions (10 mM in DMSO). […] To stop the reaction, 1M NaOH was added and absorption at 410 nm, with 490 nm as a reference value, was measured using a spectrophotometer. […]
The inhibitory effects of gold compounds were calculated as the ratio of absorbance between the treated and untreated wells. […]

COc1ccnc(-c2cc(OC)ccn2)c1.F[P-](F)(F)(F)(F)F.[Cl][Au+][Cl] [AubipyOMe, [Au(4,4′-dimethoxy-2,2′-bipyridine)Cl2][PF6]]
IC50 ([1]; RAW264.7 macrophages, 72 h, n = 4, read-out: IC50 cytotoxicity): ~35 µM | cytotoxic effects on RAW264.7 macrophages ([1]; at concentrations around the TRAP IC50 values): no cytotoxic effects | inhibitory effects on other proteins [2]: extremely moderate | IC50 [3]: 1.7 ± 0.4 µM
